# Experimental data taken from US6413935B1, “Induction of immune response against desired determinants” (priority 1993, dated 2002).
# Values joined by “and” are separate entries in the source; they are usually repeats but may differ in a detail not shown here. Equal values may be shown once. Read-outs that look alike come from different tables or passages of the source.
# Tests used:
# [1] = tested on: DR5; conditions: read-out: PADRE Class II Binding Affinities DR5, Table IX
# [2] = molecular target: DR2w2a (Homo sapiens, UniProt P01903+Q30154); assay: biochemical; conditions: PADRE Class II Binding Affinities DR2w282, Table IX
# Sequence of DR2w2a (P01903 26-254): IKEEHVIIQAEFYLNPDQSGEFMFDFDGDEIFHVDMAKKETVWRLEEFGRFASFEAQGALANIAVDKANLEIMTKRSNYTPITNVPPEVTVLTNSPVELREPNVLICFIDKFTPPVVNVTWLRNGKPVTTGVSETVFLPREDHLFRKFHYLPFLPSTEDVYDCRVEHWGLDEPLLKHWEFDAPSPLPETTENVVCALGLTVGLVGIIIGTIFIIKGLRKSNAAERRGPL
# Sequence of DR2w2a (Q30154 30-266): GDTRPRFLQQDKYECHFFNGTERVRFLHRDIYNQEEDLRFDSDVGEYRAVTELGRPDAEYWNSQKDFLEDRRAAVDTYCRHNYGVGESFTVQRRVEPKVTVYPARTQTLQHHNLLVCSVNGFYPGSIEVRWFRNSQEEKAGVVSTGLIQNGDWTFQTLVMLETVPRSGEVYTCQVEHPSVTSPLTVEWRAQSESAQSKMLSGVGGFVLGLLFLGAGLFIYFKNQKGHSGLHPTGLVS
# [3] = tested on: DR7; conditions: read-out: PADRE Class II Binding Affinities DR7, Table IX
# [4] = molecular target: DR1 (Homo sapiens, UniProt P01903+P01911, A100R/D57E/F55L/F60I/F76Y/I96L/L162R/M171V/P40L/Q125E/R42F/V115G/Y59C); assay: biochemical
# [5] = molecular target: DR4w4 (Homo sapiens, UniProt P01903+P01911, A100K/A169T/F76Y/I96L/K127E/L162R/M171V/N62H/P40V/Q125Y/R42H/S133A/S149N/S66Y/V115G/V209L/W38E); assay: biochemical
# [6] = tested on: human PBMC T cell lines; format: cell-based
# [7] = molecular target: DR3 (Homo sapiens, UniProt P01903+P01911, A100K/A102G/A103R/A169T/F55Y/I96L/K41T/L162R/M171V/P40S/Q125H/Q178H/Q39Y/R42S/S66N/T106N/T262R/W38E/Y61H); assay: biochemical; conditions: PADRE Class II Binding Affinities DR3, Table IX
# [8] = molecular target: T1, IA^s (Mus musculus, UniProt P06345+P14437); assay: biochemical; format: binding; conditions: Table III; read-out: Capacity to bind purified IA^s, IC50
# T1 construct: Various cell lines were used as sources of purified human and mouse class II molecules; endogenous in cells; host or cells: LS102.9
# T1 sequence (P14437 1-233): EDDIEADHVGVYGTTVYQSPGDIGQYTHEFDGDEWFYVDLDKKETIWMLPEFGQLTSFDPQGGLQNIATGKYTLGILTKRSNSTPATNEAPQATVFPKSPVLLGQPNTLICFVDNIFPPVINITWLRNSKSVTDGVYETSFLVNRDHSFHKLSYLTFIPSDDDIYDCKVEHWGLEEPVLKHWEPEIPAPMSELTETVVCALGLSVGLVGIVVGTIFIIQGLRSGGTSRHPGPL
# T1 sequence (P06345 28-263): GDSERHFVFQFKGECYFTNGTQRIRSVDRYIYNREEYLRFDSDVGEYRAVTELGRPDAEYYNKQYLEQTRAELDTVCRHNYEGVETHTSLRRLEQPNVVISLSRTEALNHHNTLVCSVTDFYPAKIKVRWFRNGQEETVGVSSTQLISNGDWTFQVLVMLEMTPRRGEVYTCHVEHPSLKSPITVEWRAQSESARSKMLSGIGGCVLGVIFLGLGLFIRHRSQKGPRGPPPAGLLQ
# [9] = molecular target: T2, IA^k (Mus musculus, UniProt P01910+P06343); assay: biochemical; format: binding; conditions: Table III; read-out: Capacity to bind purified IA^k, IC50
# T2 construct: Various cell lines were used as sources of purified human and mouse class II molecules; endogenous in cells; host or cells: CH12
# T2 sequence (P01910 24-256): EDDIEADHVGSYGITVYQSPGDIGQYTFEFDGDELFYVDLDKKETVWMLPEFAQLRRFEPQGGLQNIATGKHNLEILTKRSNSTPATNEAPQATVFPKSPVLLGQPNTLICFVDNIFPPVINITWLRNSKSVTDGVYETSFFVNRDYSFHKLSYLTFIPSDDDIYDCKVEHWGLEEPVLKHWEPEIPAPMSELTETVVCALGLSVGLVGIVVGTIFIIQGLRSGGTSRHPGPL
# T2 sequence (P06343 28-263): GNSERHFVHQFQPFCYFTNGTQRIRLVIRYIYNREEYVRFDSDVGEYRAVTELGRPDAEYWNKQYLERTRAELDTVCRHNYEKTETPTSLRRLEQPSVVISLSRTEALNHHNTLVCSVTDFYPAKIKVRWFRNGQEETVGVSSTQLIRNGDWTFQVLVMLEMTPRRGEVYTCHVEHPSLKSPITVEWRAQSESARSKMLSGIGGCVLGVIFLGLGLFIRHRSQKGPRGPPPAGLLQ
# [10] = molecular target: T3, IE^d (Mus musculus, UniProt P01904+P01915); assay: biochemical; format: binding; conditions: Table III; read-out: Capacity to bind purified IE^d, IC50
# T3 construct: Various cell lines were used as sources of purified human and mouse class II molecules; endogenous in cells; host or cells: A20
# T3 sequence (P01904 26-255): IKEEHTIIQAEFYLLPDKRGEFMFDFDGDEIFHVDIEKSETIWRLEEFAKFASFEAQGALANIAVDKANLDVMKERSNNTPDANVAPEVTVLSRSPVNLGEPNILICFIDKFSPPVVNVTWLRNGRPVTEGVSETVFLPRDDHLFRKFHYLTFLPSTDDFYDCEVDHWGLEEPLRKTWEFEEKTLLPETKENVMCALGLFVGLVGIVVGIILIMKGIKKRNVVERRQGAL
# T3 sequence (P01915 27-264 limits assumed): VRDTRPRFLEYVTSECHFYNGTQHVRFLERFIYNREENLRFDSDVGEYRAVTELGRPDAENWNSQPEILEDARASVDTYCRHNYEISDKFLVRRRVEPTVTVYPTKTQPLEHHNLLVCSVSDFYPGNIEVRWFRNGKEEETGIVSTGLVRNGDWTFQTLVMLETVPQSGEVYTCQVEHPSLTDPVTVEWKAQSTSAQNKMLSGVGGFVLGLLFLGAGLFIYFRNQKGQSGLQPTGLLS
# [11] = PADRE Class II Binding Affinities DR1, Table IX
# [12] = PADRE Class II Binding Affinities DR4w4, Table IX
smiles,measurement,setting,value
CC(C)C[C@H](NC(=O)[C@@H](NC(=O)[C@H](Cc1c[nH]c2ccccc12)NC(=O)[C@H](C)NC(=O)[C@H](CCCCN)NC(=O)[C@@H](NC(=O)[C@H](CC1CCCCC1)NC(=O)[C@H](CCCCN)NC(=O)[C@@H](C)N)C(C)C)[C@@H](C)O)C(=O)N[C@@H](CCCCN)C(=O)N[C@@H](C)C(=O)N[C@@H](C)C(=O)N[C@H](C)C(N)=O [Peptide 965.021],IC50,[1],4.1 nM
same,IC50,[1]; listed as 965.022,1.1 nM
same,IC50,[2],5.7 nM and 9 nM
same,IC50,[3],89.3 nM
same,IC50,[3]; listed as 965.022,338 nM
same,IC50,[4]; [11],0.8 nM and 0.7 nM
CC(C)C[C@H](NC(=O)[C@@H](NC(=O)[C@H](Cc1ccc(O)cc1)NC(=O)[C@H](C)NC(=O)[C@H](Cc1c[nH]c2ccccc12)NC(=O)[C@@H](NC(=O)[C@H](CC1CCCCC1)NC(=O)[C@H](CCCCN)NC(=O)[C@@H](C)N)C(C)C)[C@@H](C)O)C(=O)N[C@@H](CCCCN)C(=O)N[C@@H](C)C(=O)N[C@@H](C)C(=O)N[C@H](C)C(N)=O [Peptide 965.041],IC50,[5]; [12],0.5 nM
same,IC50,[1],4.7 nM
same,IC50,[2],2.5 nM
same,IC50,[4]; [11],0.5 nM
CC(C)C[C@H](NC(=O)[C@@H](NC(=O)[C@H](Cc1ccc(O)cc1)NC(=O)[C@H](C)NC(=O)[C@H](C)NC(=O)[C@@H](NC(=O)[C@H](CC1CCCCC1)NC(=O)[C@H](CCCCN)NC(=O)[C@@H](C)N)C(C)C)[C@@H](C)O)C(=O)N[C@@H](CCCCN)C(=O)N[C@@H](C)C(=O)N[C@@H](C)C(=O)N[C@H](C)C(N)=O [Peptide 965.091],IC50,[5]; PADRE Class II Binding Affinities DR4w4,1 nM
same,"Donors with significant (>10,000 cpm) T cell response / donors tested, second stimulation",[6],4/5
same,"Donors with significant (>10,000 cpm) T cell response / donors tested, third stimulation",[6],4/5
same,IC50,[1]; listed as 965.092,6.5 nM
same,IC50,[2],7.4 nM and 6.4 nM
same,IC50,[7],450 nM and 3210 nM
same,IC50,[4]; PADRE Class II Binding Affinities DR1,0.8 nM
same,IC50,[4]; [11],0.6 nM
CC(C)C[C@H](NC(=O)[C@@H](NC(=O)[C@H](CC(N)=O)NC(=O)[C@H](C)NC(=O)[C@H](C)NC(=O)[C@@H](NC(=O)[C@H](CC1CCCCC1)NC(=O)[C@H](CCCCN)NC(=O)[C@@H](C)N)C(C)C)[C@@H](C)O)C(=O)N[C@@H](CCCCN)C(=O)N[C@@H](C)C(=O)N[C@@H](C)C(=O)N[C@H](C)C(N)=O [Peptide 965.081],"Donors with significant (>10,000 cpm) T cell response / donors tested, second stimulation",[6],1/5
same,"Donors with significant (>10,000 cpm) T cell response / donors tested, third stimulation",[6],2/5
same,IC50,[1]; listed as 965.082,12.5 nM
"CC[C@H](C)[C@H](N)C(=O)N[C@@H](CO)C(=O)N[C@@H](CCC(N)=O)C(=O)N[C@@H](C)C(=O)N[C@H](C(=O)N[C@@H](Cc1c[nH]cn1)C(=O)N[C@@H](C)C(=O)N[C@@H](C)C(=O)N[C@@H](Cc1c[nH]cn1)C(=O)N[C@@H](C)C(=O)N[C@@H](CCC(=O)O)C(=O)N[C@H](C(=O)N[C@@H](CC(N)=O)C(=O)N[C@@H](CCC(=O)O)C(=O)O)[C@@H](C)CC)C(C)C [Ova 323-336, ISQAVHAAHAEINE]",IC50,[8],1040 nM
same,IC50,[9],1000 nM
same,IC50,[10],> 10000 nM
CC(C)C[C@H](NC(=O)[C@@H](NC(=O)[C@H](CC(N)=O)NC(=O)[C@H](C)NC(=O)[C@H](CCCNC(=N)N)NC(=O)[C@@H](NC(=O)[C@H](CC1CCCCC1)NC(=O)[C@H](CCCNC(=N)N)NC(=O)[C@@H](C)N)C(C)C)[C@@H](C)O)C(=O)N[C@@H](CCCCN)C(=O)N[C@@H](C)C(=O)N[C@@H](C)C(=O)N[C@H](C)C(N)=O [Peptide 965.06],IC50,[5]; [12],1.3 nM
same,IC50,[1],5.6 nM
same,IC50,[2],6.4 nM
same,IC50,[3],73.5 nM
same,IC50,[4]; [11],0.8 nM
CC(C)C[C@H](NC(=O)[C@@H](NC(=O)[C@H](CCCCN)NC(=O)[C@H](C)NC(=O)[C@H](C)NC(=O)[C@@H](NC(=O)[C@H](CC1CCCCC1)NC(=O)[C@H](CCCCN)NC(=O)[C@@H](C)N)C(C)C)[C@@H](C)O)C(=O)N[C@@H](CCCCN)C(=O)N[C@@H](C)C(=O)N[C@@H](C)C(=O)N[C@H](C)C(N)=O [Peptide 965.14],"Donors with significant (>10,000 cpm) T cell response / donors tested, second stimulation",[6],1/5
same,"Donors with significant (>10,000 cpm) T cell response / donors tested, third stimulation",[6],3/5
same,IC50,[1],34.5 nM
CC(C)C[C@H](NC(=O)[C@@H](NC(=O)[C@H](Cc1c[nH]c2ccccc12)NC(=O)[C@H](C)NC(=O)[C@H](Cc1ccc(O)cc1)NC(=O)[C@@H](NC(=O)[C@H](CC1CCCCC1)NC(=O)[C@H](CCCCN)NC(=O)[C@@H](C)N)C(C)C)[C@@H](C)O)C(=O)N[C@@H](CCCCN)C(=O)N[C@@H](C)C(=O)N[C@@H](C)C(=O)N[C@H](C)C(N)=O [Peptide 965.051],IC50,[5]; [12],0.3 nM and 0.8 nM
same,IC50,[1],5.7 nM
same,IC50,[1]; listed as 965.052,6.9 nM
same,IC50,[2],7.1 nM and 9 nM
same,IC50,[3]; listed as 965.052,25.5 nM
same,IC50,[4]; [11],0.5 nM and 0.7 nM
CC(C)C[C@H](NC(=O)[C@@H](NC(=O)[C@H](CC(N)=O)NC(=O)[C@H](C)NC(=O)[C@H](CCCCN)NC(=O)[C@@H](NC(=O)[C@H](CC1CCCCC1)NC(=O)[C@H](CCCCN)NC(=O)[C@@H](C)N)C(C)C)[C@@H](C)O)C(=O)N[C@@H](CCCCN)C(=O)N[C@@H](C)C(=O)N[C@@H](C)C(=O)N[C@H](C)C(N)=O [Peptide 965.011],IC50,[1],11.8 nM
same,IC50,[1]; listed as 965.012,2.2 nM
same,IC50,[2],12.5 nM and 10.5 nM
same,IC50,[7],592 nM and 4590 nM
same,IC50,[3]; listed as 965.012,781 nM
same,IC50,[4]; [11],1.5 nM and 1.3 nM
CC(C)C[C@H](NC(=O)[C@@H](NC(=O)[C@@H](NC(=O)[C@H](C)NC(=O)[C@H](Cc1c[nH]c2ccccc12)NC(=O)[C@@H](NC(=O)[C@H](CC1CCCCC1)NC(=O)[C@H](CCCCN)NC(=O)[C@@H](C)N)C(C)C)C(C)C)[C@@H](C)O)C(=O)N[C@@H](CCCCN)C(=O)N[C@@H](C)C(=O)N[C@@H](C)C(=O)N[C@H](C)C(N)=O [Peptide 965.042],IC50,[5]; [12],1 nM
same,IC50,[2],9.5 nM
same,IC50,[4]; [11],0.2 nM
CSCC[C@H](NC(=O)[C@@H](NC(=O)[C@H](CC1CCCCC1)NC(=O)[C@H](CCCCN)NC(=O)[C@@H](C)NC(=O)[C@H](CO)NC(=O)[C@H](CO)NC(=O)[C@@H](N)CCCCN)C(C)C)C(=O)N[C@@H](C)C(=O)N[C@@H](C)C(=O)N[C@H](C(=O)N[C@@H](CC(C)C)C(=O)N[C@@H](CCCCN)C(=O)N[C@@H](C)C(=O)N[C@@H](C)C(=O)N[C@H](C)C(N)=O)[C@@H](C)O [Peptide 965.19],IC50,[2],23.5 nM
